In patent US20180170904A1, “PYRIDIN-3-YL ACETIC ACID DERIVATIVES AS INHIBITORS OF HUMAN IMMUNODEFICIENCY VIRUS REPLICATION” (priority 2015, published 2018):
Where two headings read alike, the source gives them in different places.

Tested on: NL-RLuc virus (recombinant NL4-3 proviral clone with Renilla Luciferase gene)
Experiment: Inhibition of HIV replication (NL-RLuc reporter virus in MT-2 cells)
Type: cell-based
Procedure, shortened: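 MT-2 cells infected with NL4-3-derived NL-RLuc reporter virus (Renilla luciferase replacing part of nef) with serial compound dilutions, RPMI 1640 + 10% FBS; 5 days. Growth by luciferase; EC50 from median effect equation, ≥2 experiments.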

[1] = Renilla, NL43, 120 h, read-out: Activity
[2] = Renilla, NL43, 120 h, read-out: EC50 μM

Molecule | EC50 [1] | EC50 [2] | EC50 (MT-2 cells infected with NL-RLuc virus, 5 days of incubation, luciferase readout, read-out: Activity)
Cc1cc(CNC(=O)c2ccc(-c3c(C)nc(C)c([C@H](OC(C)(C)C)C(=O)O)c3N3CCC(C)(C)CC3)cc2)ccc1F [Example 1, (S)-2-(tert-Butoxy)-2-(4-(4,4-dimethylpiperidin-1-yl)-5-(4-((4-fluoro-3-methylbenzyl)carbamoyl)phenyl)-2,6-dimethylpyridin-3-yl)acetic acid] | < 0.1 µM | 0.007 µM | –
Cc1nc(C)c([C@H](OC(C)(C)C)C(=O)O)c(N2CCC(C)(C)CC2)c1-c1ccc(C(C)(C)O)cc1 [Example 38, (S)-2-(tert-Butoxy)-2-(4-(4,4-dimethylpiperidin-1-yl)-5-(4-(2-hydroxypropan-2-yl)phenyl)-2,6-dimethylpyridin-3-yl)acetic acid] | < 0.1 µM | – | –
Cc1nc(C)c([C@H](OC(C)(C)C)C(=O)O)c(N2CCC(C)(C)CC2)c1-c1cccc(C(C)C)c1 [Example 40, (S)-2-(tert-Butoxy)-2-(4-(4,4-dimethylpiperidin-1-yl)-5-(3-isopropylphenyl)-2,6-dimethylpyridin-3-yl)acetic acid] | < 0.1 µM | – | –
Cc1nc(C)c([C@H](OC(C)(C)C)C(=O)O)c(N2CCC(C)(C)CC2)c1-c1ccc(NCCc2ccc(F)cc2)cc1 [Example 73, (S)-2-(tert-Butoxy)-2-(4-(4,4-dimethylpiperidin-1-yl)-5-(4-((4-fluorophenethyl)amino)phenyl)-2,6-dimethylpyridin-3-yl)acetic acid] | < 0.1 µM | – | –
CCOC(=O)Nc1ccc(-c2c(C)nc(C)c([C@H](OC(C)(C)C)C(=O)O)c2N2CCC(C)(C)CC2)cc1 [Example 71, (S)-2-(tert-Butoxy)-2-(4-(4,4-dimethylpiperidin-1-yl)-5-(4-((ethoxycarbonyl)amino)phenyl)-2,6-dimethylpyridin-3-yl)acetic acid] | < 0.1 µM | – | –
Cc1nc(C)c([C@H](OC(C)(C)C)C(=O)O)c(N2CC(C)CC(C)C2)c1-c1ccc(C(=O)NCc2ccccc2)cc1 (some centres unmarked) [Example 53] | 0.1 to 1 µM | – | –
Cc1nc(C)c([C@H](OC(C)(C)C)C(=O)O)c(N2CC(C)(C)C2)c1-c1ccc(C(=O)NCc2ccccc2)cc1 [Example 57, (S)-2-(5-(4-(Benzylcarbamoyl)phenyl)-4-(3,3-dimethylazetidin-1-yl)-2,6-dimethylpyridin-3-yl)-2-(tert-butoxy)acetic acid] | > 1 µM | 2.54 µM | –
Cc1nc(C)c([C@H](OC(C)(C)C)C(=O)O)c(N2CCC(C)(C)CC2)c1-c1ccc(CC(C)C)cc1 [Example 20, (S)-2-(tert-Butoxy)-2-(4-(4,4-dimethylpiperidin-1-yl)-5-(4-isobutylphenyl)-2,6-dimethylpyridin-3-yl)acetic acid] | < 0.1 µM | 0.161 µM | –
Cc1nc(C)c([C@H](OC(C)(C)C)C(=O)O)c(N2CCC(C)(C)CC2)c1-c1ccc(CCc2ccc(F)cc2)cc1 [Example 85, (S)-2-(tert-Butoxy)-2-(4-(4,4-dimethylpiperidin-1-yl)-5-(4-(4-fluorophenethyl)-phenyl)-2,6-dimethylpyridin-3-yl)acetic acid] | < 0.1 µM | – | –
(S)-2-(tert-Butoxy)-2-(4-(4,4-dimethylpiperidin-1-yl)-5-(3-(1-(4-fluorobenzyl)-1H-tetrazol-5-yl)phenyl)-2,6-dimethylpyridin-3-yl)acetic acid and/or (S)-2-(tert-Butoxy)-2-(4-(4,4-dimethylpiperidin-1-yl)-5-(3-(2-(4-fluorobenzyl)-2H-tetrazol-5-yl)phenyl)-2,6-dimethylpyridin-3-yl)acetic acid [Example 87] | – | – | < 0.1 µM
Cc1ccc(-c2c(C)nc(C)c([C@H](OC(C)(C)C)C(=O)O)c2N2CCC(C)(C)CC2)cc1F [Example 19, (S)-2-(tert-Butoxy)-2-(4-(4,4-dimethylpiperidin-1-yl)-5-(3-fluoro-4-methylphenyl)-2,6-dimethylpyridin-3-yl)acetic acid] | < 0.1 µM | – | –
